One test deals with SW756 cells. Nature of the test: Cancer cell viability assay with 3D cell colonies (CellTiter-Glo), SW756. It counts as cell-based. The conditions noted are these: Homo sapiens, SW756, 168 h, 7 days. How it is done:
(§1) Ovarian cancer cell line SK-OV-3 cells were cultured in McCoy's 5a media containing 10% FBS. Ovarian cancer cell line OVCAR-8 cells were cultured in RPMI media containing 10% FBS. Additional cancer cell lines were cultured in the following media: • Ovarian cancer SW756 cells—L-15 (100% air)+10% FBS • Esophageal cancer TE-1 cells—RPMI-1640+10% FBS • Esophageal cancer KYSE-410 cells—RPMI-1640+5˜10% FBS • Esophageal cancer KYSE-70 cells—RPMI-1640+10% h.i.FBS. • Pharyngeal cancer FaDu cells—MEM+0.01 mM NEAA+10% FBS
(§2) Cell colony formation was tested using a 3D methylcellulose-based CellTiter-Glo (CTG) viability assay (Cat. No: G7573, Promega). Briefly, cells were inoculated into 96-well plates (at 1,500 cells per well) into a solution of 0.65% methylcellulose in growth media and incubated overnight at 37° C. in 5% CO2. The next day, serially diluted test compound (islatravir) or positive control (cisplatin, Cat. No. 6J015A89, Qilu Pharma) were added at the indicated concentrations, and the cells were incubated for 7 days. On day seven, 100 μL of CTG reagent was added, and the plates were incubated at room temperature for 20 min. Luminescence was read on an Envision Multi Label Reader according to manufacturer's instructions. IC50 values were determined using the following calculation: […]

Test [1] has as its system interferon-stimulated gene (ISG) expression. Description: In vivo decitabine challenge model. On the set-up: species or system C57BL/6 mice. The settings on record: islatravir p.o. 0.6, 2.0, 6.0 mg/kg once daily with decitabine i.p. 5 mg/kg, Day 0 to Day 4. How it is done: Twenty 9-11 week old C57BL/6 mice were acclimated to the lab for at least 5 days. Islatravir was prepared in a 0.5% methylcellulose solution for p.o. administration. Decitabine (Sigma) was dissolved in sterile PBS (pH 7.4) and dosed within 30 minutes of preparation of the solution. Doses of both islatravir and decitabine were administered once a day, every day from Day 0 to Day 4. On Day 0, mice were split into four groups of five mice and given their first dose of decitabine (i.p., 5 mg/kg) and compound 23. Dosing groups were: [table] Decitabine and islatravir were administered daily from Day 0 to Day 4. All mice were euthanized 1 hour after the last dose administration on Day 4. Spleens, liver, and terminal colon were collected, along with plasma from each animal. The fold changes in interferon-stimulated gene (ISG) expression was calculated by first normalizing to GAPDH gene using the Delta CT method. The CT (gene of interest)—CT (reference gene) was calculated to generate a delta CT for all samples. The fold change was then calculated by taking the […](Delta CT(control)−Delta CT (experimental). The control in this example was the PBS control animal group. The Taqman duplex assay (Thermo Fisher 4331182 and 4448489) was used according to the manufacturer's instructions to determine levels of GAPDH v. IFIT2.

In a further test the test system is KYSE-70 cells. Nature of the test: Cancer cell viability assay with 3D cell colonies (CellTiter-Glo), KYSE-70. It counts as cell-based. The conditions noted are these: Homo sapiens, KYSE-70, 168 h, 7 days. The protocol: as §1, §2
Test [2] has as its system THP1-Dual™ KO-TREX1 cells. Nature of the test: CellTiter-Glo cell viability in THP1 TREX1 KO cells. It counts as cell-based. The conditions noted are these: Homo sapiens, 120 h, in the presence of 1 μM 5-aza-2′-deoxycytidine, five days, read-out: CellTiter-Glo inhibition IC50. The protocol:
(§3) THP1-Dual™ KO-TREX1 cells were purchased from Invivogen (cat #thpd-kotrex). The THP1-Dual™ KO-TREX1 cells were cultured in RPMI 1640, 10% heat-inactivated fetal bovine serum, 25 mM HEPES, 10 μg/mL Blasticidin, and 100 μg/mL Zeocin. THP1-Dual™ KO-TREX1 cells were treated with a dose titration of test compound in the presence of 1 μM 5-aza-2′-deoxycytidine (Sigma, cat #189825). Type 1 Interferon and cell viability were assessed after five days of treatment.
(§4) Stock solution of test compound was prepared in DMSO followed by a three-fold dilution in DMSO. Additional 50× dilution was prepared in cell culture media for each dilution. 10 μL of diluted test compound was then added to a 384-well plate.
THP1-Dual™ KO-TREX1 cells were treated with 1 μM 5-aza-2′-deoxycytidine. THP1-Dual™ KO-TREX1 cells (50 μL) were added to each well of the 384-well plate containing test compound titration at 10,000 cells/well. Cells were incubated at 37° C., 5% CO2 in a humidified incubator for five days. […] Luminescence was detected on a plate reader according to manufacturer's instructions. […]
The remaining cells were assessed for cell viability by adding 30 μl of CellTiter-Glo (Promega, G9683) solution to each well, and placed on a shaker for 10 minutes at room temperature. Luminescence was detected on a plate reader, according to manufacturer's instructions. […]

For test [3], the system named is THP1-Dual™ KO-TREX1 cells. Nature of the test: Cellular assay for altering IFN production in THP1 TREX1 KO cells. Type of test: cell-based. The settings on record: in the presence of 1 μM 5-aza-2′-deoxycytidine, five days. How it is done: as §3, §4
THP1-Dual™ KO-TREX1 cells were treated with 1 μM 5-aza-2′-deoxycytidine. THP1-Dual™ KO-TREX1 cells (50 μL) were added to each well of the 384-well plate containing test compound titration at 10,000 cells/well. Cells were incubated at 37° C., 5% CO2 in a humidified incubator for five days. On day five, 20 μL of cell supernatant was transferred to a 384-well, white-walled plate, followed by addition to each well of 50 μL of QUANTI-LUC solution containing stabilizer. Luminescence was detected on a plate reader according to manufacturer's instructions. […]

As to `C#C[C@]1(CO)O[C@@H](n2cnc3c(N)nc(F)nc32)C[C@@H]1O` [Islatravir, (2R,3S,5R)-5-(6-amino-2-fluoro-9H-purin-9-yl)-2-ethynyl-2-(hydroxymethyl)tetrahydrofuran-3-ol], the IC50 in the test on SW756 cells is above 30 µM; in the test on KYSE-70 cells it was 10 to 30 µM; in test [2], above 20 µM. The “change in ISG response” value in test [1] was “showed the change in ISG response”. Besides, in test [3], the “changes in IFN levels (% induction)” value is listed as “induction of IFN”.
